What was measured:
CF-1 strain mice [1] = test: Topical analgesic activity: tail formalin test; assay type: in vivo; details: topical 5% solution; from medians of treated and control group
Procedure: The in vivo biological study evaluated the toxicity, oral analgesic activity and topical analgesic activity in the global methanolic extract of Encelia canescens Lam. For these assessments not inbred males CF-1 strain mice were used, whose weight varied between 14 to 20 g and age between 30 to 35 days. In all evaluations, animals were kept in fasting for 12 hours prior to each test with water ad libitum at room temperature.
Each test was carried out with 10 animals, leaving 2 of them as controls, adding these to a “pool” of animal controls, in total were a group of 16 control animals. At the end of the tests, the animals were sacrificed by cervical dislocation, a painless method.
For all tests, the pharmacological effect was calculated using the values of the median, as a measure of central tendency of the data and standard error of the median (SEM) as measure of dispersion.
Results were analyzed by the non-parametric statistical method of Wilcoxon for independent data (Hollander and Wolfe, 1973), considering significant if its p≦0.05.
This test is intended to determine the analgesic activity via topical of global methanol extract (EMG) of Encella canescens Lam. […] Then, the time of licking which makes the mouse at the site of injection for five minutes, was counted. […] The topical analgesic activity was calculated using the following formula. % D=(Cm/Cc)×100 where: % D: percentage of pain. […]

CF-1 strain mice [2] = test: Oral analgesia: abdominal twisting induced by acetic acid; assay type: in vivo; details: extract 200 mg/kg in arabic gum, dose of reference drug not given
[3] = Antioxidant evaluation in system lacase-ABTS; assay type: biochemical
Procedure: In addition, the antioxidant capacity was analyzed using the system lacase-ABTS (2,2-azino-bis-3-ethyl-benzo-thiazolin-6-sulfonic) that allows to establish in a comparative way the oxidation of substrates, denoting of indirect way the antioxidant capacity of a sample (Table 7).

Q: For CC(C)Cc1ccc(C(C)C(=O)O)cc1 (stereo not drawn) [Ibuprofen], which “% AAT percentage of the topical analgesic activity (% A 1)” value (CF-1 strain mice [1]) is on record?
A: 76.53%

Q: Which “% E percentage of analgesic effect (with median, final)” value (CF-1 strain mice [2]) does the source give for COc1ccc2cc([C@H](C)C(=O)O)ccc2c1 [Naproxen Sodium, Naproxen sodium] here?
A: 70%

Q: With Cc1c(C)c2c(c(C)c1O)CCC(C)(C(=O)O)O2 (stereo not drawn) [Trolox ®, Trolox] as the compound, how does the “Antioxidant activity IC50” value [3] read?
A: 1.97 mg/mL
